Test results as given in patent publication US8389557B2, “Triazole derivatives useful as Axl inhibitors” (Rigel Pharmaceuticals, Inc., priority 2005, dated 2013).
pIC50: −log10 of the molar value.

Target: T1, Axl (Homo sapiens, UniProt P30530)
T1 construct: endogenous in cells; host or cells: HeLa cells
T1 sequence (P30530 26-894): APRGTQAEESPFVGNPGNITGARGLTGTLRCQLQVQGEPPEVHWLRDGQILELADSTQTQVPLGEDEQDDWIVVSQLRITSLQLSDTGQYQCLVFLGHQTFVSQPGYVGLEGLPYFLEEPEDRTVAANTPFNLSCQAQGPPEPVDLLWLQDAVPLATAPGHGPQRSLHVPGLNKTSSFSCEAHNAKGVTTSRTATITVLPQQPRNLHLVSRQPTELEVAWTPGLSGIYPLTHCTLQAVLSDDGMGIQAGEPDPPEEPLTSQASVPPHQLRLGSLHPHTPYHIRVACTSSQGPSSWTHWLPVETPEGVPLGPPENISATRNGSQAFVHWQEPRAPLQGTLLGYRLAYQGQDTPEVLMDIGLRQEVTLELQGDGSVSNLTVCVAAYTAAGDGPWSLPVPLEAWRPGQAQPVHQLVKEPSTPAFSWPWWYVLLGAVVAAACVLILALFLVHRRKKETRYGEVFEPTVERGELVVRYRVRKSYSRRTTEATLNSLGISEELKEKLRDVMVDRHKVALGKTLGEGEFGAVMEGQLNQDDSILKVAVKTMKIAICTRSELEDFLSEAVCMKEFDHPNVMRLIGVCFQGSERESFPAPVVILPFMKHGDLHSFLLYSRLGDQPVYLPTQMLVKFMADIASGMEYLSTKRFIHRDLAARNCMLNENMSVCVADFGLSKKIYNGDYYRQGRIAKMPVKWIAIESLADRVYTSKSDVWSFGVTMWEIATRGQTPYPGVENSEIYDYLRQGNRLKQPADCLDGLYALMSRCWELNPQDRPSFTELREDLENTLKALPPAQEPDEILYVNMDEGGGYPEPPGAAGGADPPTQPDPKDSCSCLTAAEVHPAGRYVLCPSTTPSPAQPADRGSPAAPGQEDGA
Assay: Phospho-Akt in-cell Western assay (inhibition of Axl activity)
Format: cell-based
Method in brief: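 HeLa cells on poly-L-lysine, starved 24 h in 0.5% FCS DMEM with Axl/Fc 500 ng/mL, pre-treated with compound 1 h at 37° C. Axl stimulated 5 min by anti-Axl/anti-mouse antibody cross-linking. Fixed cells probed with anti-phospho-Akt and HRP secondary, chemiluminescence read.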

[1] = inhibition of Axl activity, phospho-Akt in-cell Western assay, Table 1
[2] = Table 2, Hela cells, Axl antibody cross-linking stimulation, phospho-Akt chemiluminescence
[3] = Table 3, Hela cells, Axl antibody cross-linking stimulation, phospho-Akt chemiluminescence

`Nc1nc(Nc2ccc(OCCN3CCCC3)cc2)nn1C(=O)c1c(F)cccc1F` [compound 289, 5-amino-1-(2,6-difluorophenyl)carbonyl-3-[4-[2-(pyrrolidin-1-yl)ethoxy]phenylamino]-1H-1,2,4-triazole] was tested, and the pIC50 [1] was < 4.70.
For `CC(C)(C)C(=O)Nc1ccc(C(=O)n2nc(Nc3ccc(OCCN4CCCC4)cc3)nc2N)cc1` [compound 290, 5-amino-1-(4-(tert-butylcarbonylamino)phenyl)carbonyl-3-[4-[2-(pyrrolidin-1-yl)ethoxy]phenylamino]-1H-1,2,4-triazole], the pIC50 [1] was 4.70 to 5.00.
In the case of `CC(C)(C)Oc1ccc(C(=O)n2nc(Nc3ccc(N4CCCC4)cc3)nc2N)cc1` [compound 291, 5-amino-1-(4-(tert-butoxy)phenyl)carbonyl-3-[4-(pyrrolidin-1-yl)phenylamino]-1H-1,2,4-triazole], the pIC50 [1] was < 4.70.
With `CC(C)(C)Oc1ccc(C(=O)n2nc(N)nc2Nc2ccc(N3CCCC3)cc2)cc1` [compound 292, 3-amino-1-(4-(tert-butoxy)phenyl)carbonyl-5-(4-(pyrrolidin-1-yl)phenylamino]-1H-1,2,4-triazole] the pIC50 [2] was < 4.70.
`CC(C)Oc1ccc(C(=O)n2nc(Nc3ccc(N4CCCC4)cc3)nc2N)cc1` [compound 293, 5-amino-1-(4-(iso-propoxy)phenyl)carbonyl-3-[4-(pyrrolidin-1-yl)phenylamino]-1H-1,2,4-triazole] was tested, and the pIC50 [1] was 5.00 to 6.00.
With `CC(C)Oc1ccc(C(=O)n2nc(N)nc2Nc2ccc(N3CCCC3)cc2)cc1` [compound 294, 3-amino-1-(4-(iso-propoxy)phenyl)carbonyl-5-(4-(pyrrolidin-1-yl)phenylamino]-1H-1,2,4-triazole] the pIC50 [2] was < 4.70.
`CC1(C)Oc2ccc(C(=O)n3nc(Nc4ccc(N5CCCC5)cc4)nc3N)cc2NC1=O` [compound 295, 5-amino-1-(2,2-dimethyl-2H-benzo[b][1,4]oxazin-3(4H)-on-6-yl)carbonyl-3-[4-(pyrrolidin-1-yl)phenylamino]-1H-1,2,4-triazole] gave a pIC50 [3] of 5.00 to 6.00.
Compound `CC1(C)Oc2ccc(C(=O)n3nc(N)nc3Nc3ccc(N4CCCC4)cc3)cc2NC1=O` [compound 296, 3-amino-1-(2,2-dimethyl-2H-benzo[b][1,4]oxazin-3(4H)-on-6-yl)carbonyl-5-[4-(pyrrolidin-1-yl)phenylamino]-1H-1,2,4-triazole] has a pIC50 (Table 4, Hela cells, Axl antibody cross-linking stimulation, phospho-Akt chemiluminescence) of 4.70 to 5.00.
`CC(C)(C)c1ccc(C(=O)n2nc(Nc3ccc(N4CCCC4)cc3)nc2N)cc1` [compound 297, 5-amino-1-(4-(tert-butyl)phenyl)carbonyl-3-[4-(pyrrolidin-1-yl)phenylamino]-1H-1,2,4-triazole] was tested, and the pIC50 [1] was < 4.70.
In the case of `CC(C)(C)c1ccc(C(=O)n2nc(N)nc2Nc2ccc(N3CCCC3)cc2)cc1` [compound 298, 3-amino-1-(4-(tert-butyl)phenyl)carbonyl-5-[4-(pyrrolidin-1-yl)phenylamino]-1H-1,2,4-triazole], the pIC50 [2] was < 4.70.
Compound `CN(C)c1ccc(C(=O)n2nc(Nc3ccc(N4CCCC4)cc3)nc2N)cc1` [compound 299, 5-amino-1-(4-(dimethylamino)phenyl)carbonyl-3-[4-(pyrrolidin-1-yl)phenylamino]-1H-1,2,4-triazole] has a pIC50 [1] of 5.00 to 6.00.
`Cc1ccc(C(=O)n2nc(Nc3ccc(N4CCCC4)cc3)nc2N)cc1` [compound 300, 5-amino-1-(4-(methyl)phenyl)carbonyl-3-[4-(pyrrolidin-1-yl)phenylamino]-1H-1,2,4-triazole] showed a pIC50 [1] of 5.00 to 6.00.
In the case of `Cc1ccc(C(=O)n2nc(N)nc2Nc2ccc(N3CCCC3)cc2)cc1` [compound 301, 3-amino-1-(4-methylphenyl)carbonyl-5-(4-(pyrrolidin-1-yl)phenylamino]-1H-1,2,4-triazole], the pIC50 [2] was < 4.70.
With `CC(C)(C)c1ccc(C(=O)n2nc(Nc3ccc(OCCN4CCCC4)cc3)nc2N)cc1` [compound 302, 5-amino-1-(4-(tert-butyl)phenyl)carbonyl-3-[4-[2-(pyrrolidin-1-yl)ethoxy]phenylamino]-1H-1,2,4-triazole] the pIC50 [1] was > 6.00.
`CC(C)(C)c1ccc(C(=O)n2nc(N)nc2Nc2ccc(OCCN3CCCC3)cc2)cc1` [compound 303, 3-amino-1-(4-(tert-butyl)phenyl)carbonyl-5-[4-[2-(pyrrolidin-1-yl)ethoxy]phenylamino]-1H-1,2,4-triazole] was tested, and the pIC50 [2] was 5.00 to 6.00.
`Nc1nc(Nc2ccc(OCCN3CCCC3)c(F)c2)n(C(=O)c2ccc(N3CCOCC3)cc2)n1` [compound 304, 3-amino-1-(4-(morpholin-4-yl)phenyl)carbonyl-5-[3-fluoro-4-[2-(pyrrolidin-1-yl)ethoxy]phenylamino]-1H-1,2,4-triazole] gave a pIC50 [2] of 4.70 to 5.00.
With `CC(C)(C)Oc1ccc(C(=O)n2nc(Nc3ccc(OCCN4CCCC4)c(F)c3)nc2N)cc1` [compound 305, 5-amino-1-(4-(tert-butoxy)phenyl)carbonyl-3-[3-fluoro-4-[2-(pyrrolidin-1-yl)ethoxy]phenylamino]-1H-1,2,4-triazole] the pIC50 [1] was > 6.00.
For `Nc1nc(Nc2ccc(OCCN3CCCC3)c(F)c2)nn1C(=O)c1ccc(-c2csnn2)cc1` [compound 306, 5-amino-1-(4-(1,2,3-thiadiazol-4-yl)phenyl)carbonyl-3-[3-fluoro-4-[2-(pyrrolidin-1-yl)ethoxy]phenylamino]-1H-1,2,4-triazole], the pIC50 [1] was > 6.00.
For `CC(C)Oc1ccc(C(=O)n2nc(Nc3ccc(OCCN4CCCC4)c(F)c3)nc2N)cc1` [compound 307, 5-amino-1-(4-(iso-propoxy)phenyl)carbonyl-3-[3-fluoro-4-[2-(pyrrolidin-1-yl)ethoxy]phenylamino]-1H-1,2,4-triazole], the pIC50 [1] was > 6.00.
`Nc1nc(Nc2ccc(OCCN3CCCC3)c(F)c2)nn1C(=O)c1ccccc1` [compound 308, 5-amino-1-(phenyl)carbonyl-3-[3-fluoro-4-[2-(pyrrolidin-1-yl)ethoxy]phenylamino]-1H-1,2,4-triazole] was tested, and the pIC50 [1] was > 6.00.
In the case of `Nc1nc(Nc2ccc(OCCN3CCCC3)c(F)c2)nn1C(=O)c1ccc2cc[nH]c2c1` [compound 309, 5-amino-1-(1H-indol-6-yl)carbonyl-3-[3-fluoro-4-[2-(pyrrolidin-1-yl)ethoxy]phenylamino]-1H-1,2,4-triazole], the pIC50 [3] was > 6.00.
For `Nc1nc(Nc2ccc(OCCN3CCCC3)cc2)nn1C(=O)c1cccc(-c2nccs2)c1` [compound 310, 5-amino-1-(3-(thiazol-2-yl)phenyl)carbonyl-3-[4-[2-(pyrrolidin-1-yl)ethoxy]phenylamino]-1H-1,2,4-triazole], the pIC50 [1] was > 6.00.
With `Nc1nc(Nc2ccc(OCCN3CCCC3)cc2)nn1C(=O)c1ccc(-c2cccs2)cc1` [compound 311, 5-amino-1-(4-(thien-2-yl)phenyl)carbonyl-3-[4-[2-(pyrrolidin-1-yl)ethoxy]phenylamino]-1H-1,2,4-triazole] the pIC50 [1] was > 6.00.
With `Nc1nc(Nc2ccc(OCCN3CCCC3)cc2)nn1C(=O)c1csnn1` [compound 312, 5-amino-1-(1,2,3-thiadiazol-4-yl)carbonyl-3-[4-[2-(pyrrolidin-1-yl)ethoxy]phenylamino]-1H-1,2,4-triazole] the pIC50 [3] was < 4.70.
In the case of `Nc1nc(Nc2ccc(OCCN3CCCC3)cc2)nn1C(=O)c1cccc(-c2cccs2)c1` [compound 313, 5-amino-1-(3-(thien-2-yl)phenyl)carbonyl-3-[4-[2-(pyrrolidin-1-yl)ethoxy]phenylamino]-1H-1,2,4-triazole], the pIC50 [1] was > 6.00.
For `Nc1nc(Nc2ccc(OCCN3CCCC3)cc2)nn1C(=O)c1ccc(-c2ccsc2)cc1` [compound 314, 5-amino-1-(4-(thien-3-yl)phenyl)carbonyl-3-[4-[2-(pyrrolidin-1-yl)ethoxy]phenylamino]-1H-1,2,4-triazole], the pIC50 [1] was > 6.00.
`COc1cc(Nc2nc(N)n(C(=O)c3ccc(C(C)(C)C)cc3)n2)ccc1OCCN1CCCC1` [compound 315, 5-amino-1-(4-(tert-butyl)phenyl)carbonyl-3-[3-methoxy-4-[2-(pyrrolidin-1-yl)ethoxy]phenylamino]-1H-1,2,4-triazole] was tested, and the pIC50 [1] was > 6.00.
In the case of `COc1cc(Nc2nc(N)n(C(=O)c3ccc(OC(C)C)cc3)n2)ccc1OCCN1CCCC1` [compound 316, 5-amino-1-(4-(iso-propoxy)phenyl)carbonyl-3-[3-methoxy-4-[2-(pyrrolidin-1-yl)ethoxy]phenylamino]-1H-1,2,4-triazole], the pIC50 [1] was > 6.00.
With `COc1cc(Nc2nc(N)n(C(=O)c3ccc(OC(C)(C)C)cc3)n2)ccc1OCCN1CCCC1` [compound 317, 5-amino-1-(4-(tert-butoxy)phenyl)carbonyl-3-[3-methoxy-4-[2-(pyrrolidin-1-yl)ethoxy]phenylamino]-1H-1,2,4-triazole] the pIC50 [1] was > 6.00.
